For experiment [1], the system named is HL-60 (human). As to the kind of experiment: Cytotoxicity against human HL60 cells after 48 hrs by MTT assay. The conditions noted are these: HL-60, 48 h. A general note: Tetrazolium dyes change colour on reduction, which living cells bring about.
In experiment [2] the test system is BGC-823 (human). Kind of experiment: Cytotoxicity against human BGC823 cells after 48 hrs by MTT assay. As to conditions: BGC-823, 48 h.

Some results are limits rather than exact numbers.

Among the data in ChEMBL document CHEMBL1158752, “Microbial transformation of 20(S)-protopanaxatriol by Mucor spinosus” (J Nat Prod, 2005) are IC50 values, retold here.

In experiment [1], `CC(C)=CCC[C@](C)(O)[C@H]1CC[C@]2(C)[C@@H]1[C@H](O)C[C@@H]1[C@@]3(C)CC[C@H](O)C(C)(C)[C@@H]3[C@@H](O)C[C@]12C` displayed an IC50 of 16 µM. That is a double-digit micromolar value.

In the case of `C/C(=C\CC[C@](C)(O)[C@H]1CC[C@]2(C)[C@H]1[C@H](O)C[C@@H]1[C@@]3(C)CC[C@H](O)C(C)(C)[C@@H]3[C@@H](O)C[C@]12C)CO`, the IC50 is over 100 µM in experiment [2] and 12.3 µM in experiment [1].

In the case of `C/C(=C/CC[C@](C)(O)[C@H]1CC[C@]2(C)[C@H]1C(=O)C[C@@H]1[C@@]3(C)CC[C@H](O)C(C)(C)[C@@H]3[C@@H](O)C[C@]12C)CO`, the concentration for half-maximal inhibition (IC50) in experiment [2] was over 100 µM; in experiment [1], 10.8 µM.

Turning to `C/C(=C\CC[C@](C)(O)[C@H]1CC[C@]2(C)[C@H]1C(=O)C[C@@H]1[C@@]3(C)CC[C@H](O)C(C)(C)[C@@H]3[C@@H](O)C[C@]12C)CO`, the 50% inhibitory concentration (IC50) in experiment [2] was over 100 µM; in experiment [1], 16.3 µM.

For `CC(C)=CCC[C@](C)(O)[C@H]1C[C@H](O)[C@]2(C)[C@H]1C(=O)C[C@@H]1[C@@]3(C)CC[C@H](O)C(C)(C)[C@@H]3[C@@H](O)C[C@]12C`, the half-maximal inhibitory concentration (IC50) in experiment [2] is over 100 µM; in experiment [1] it was 15 µM.

One may read the IC50 as the concentration at which inhibition is half-maximal. A higher IC50 goes with lower potency.
